# From paper PMC11061835, “Elucidating the Mechanism of Metabolism of Cannabichromene by Human Cytochrome P450s” (Journal of Natural Products, 2024)
# Target: T1, CYP2C8 (Homo sapiens, UniProt P10632)
# T1 construct: His-tag; made in house; host or cells: E. coli DH-5α with pTGro7 plasmid
# T1 sequence (P10632 1-490): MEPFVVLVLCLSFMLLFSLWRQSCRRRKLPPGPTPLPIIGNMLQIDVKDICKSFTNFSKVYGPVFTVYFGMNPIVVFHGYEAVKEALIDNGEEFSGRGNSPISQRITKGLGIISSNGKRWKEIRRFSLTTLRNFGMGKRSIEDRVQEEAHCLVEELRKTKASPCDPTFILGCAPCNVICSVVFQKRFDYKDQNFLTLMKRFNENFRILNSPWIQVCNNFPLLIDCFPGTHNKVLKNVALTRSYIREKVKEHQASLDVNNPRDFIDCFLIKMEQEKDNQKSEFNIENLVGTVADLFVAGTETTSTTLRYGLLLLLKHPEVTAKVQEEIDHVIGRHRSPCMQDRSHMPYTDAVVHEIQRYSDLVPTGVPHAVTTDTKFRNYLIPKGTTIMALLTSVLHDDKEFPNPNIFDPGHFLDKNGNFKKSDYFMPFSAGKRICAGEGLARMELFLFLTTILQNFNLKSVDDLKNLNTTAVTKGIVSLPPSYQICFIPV
# Assay: CBC metabolism by CYP2C8
# Format: in vitro ADME
# Conditions: CYP2C8, from Vmax
# Protocol: To study the kinetics of CBC metabolism, concentration dependent metabolism of CBC was carried out in the presence of various CYPs using the following procedure. CYP2J2, CYP2C8, CYP2D6, CYP2C9, and CYP3A4 (final concentration 0.5 μM) were initially dissolved in lipid containing POPC:POPS (8:2 v/v) followed by addition of CPR (final concentration 0.6 μM) in 0.1 M potassium phosphate buffer (pH 7.4). CBC (5–80 μM) was added and incubated at 37 °C for 10 min. The reaction was triggered by NADPH and extracted using the exact sample protocol as mentioned in the HLM section.
# Samples were analyzed with the 5500 QTRAP LC/MS/MS system (Sciex, Framingham, MA) in the Metabolomics Lab of Roy J. Carver Biotechnology Center, University of Illinois at Urbana–Champaign. Software Analyst 1.7.1 was used for data acquisition and analysis. The 1200 series HPLC system (Agilent Technologies, Santa Clara, CA) includes a degasser, an autosampler, and a binary pump. […] Multiple reaction monitoring (MRM) was used for quantitation: CBC m/z 315.1 → m/z 135.0; 1-acetoxy-6′,7′-dihydroxy-CBC (JM-I-73) m/z 349.1→ m/z 193.0; 1″-hydroxy-CBC (JM-I-66) m/z 331.1→ m/z 275.1; 6′,7′-epoxy-CBC (JM-I-27) m/z 331.1→ m/z 193.0; 7′,10′-ene-6′-hydroxy-CBC (JM-I-30) m/z 331.1→ m/z 193.0; 8′-hydroxy-CBC (JM-I-32) […]→ m/z 77.0. Internal standard EET-EA-d11 was monitored at m/z 375.2→ m/z 357.1.
compound,measurement,value
CCCCCc1cc(O)c2c(c1)OC(C)(CC/C=C(\C)CO)C=C2 (stereo not shown) [8′-hydroxy-CBC],"ratio of 8′-hydroxy-CBC to 6′,7′-epoxy-CBC formed",around 5
